Test results from PubChem BioAssay AID1259411 (Chemical Carcinogenesis Research Information System (CCRIS), 2018).
Calls of active or inactive are those of the source. No rule for the calls is given here.

Tested on: rodent carcinogenicity bioassays, tumor incidence
Assay: CCRIS carcinogenicity studies
Method in brief: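 Archive of carcinogenicity, mutagenicity, tumor promotion and tumor inhibition results drawn from journals, NCI reports and other sources, expert-reviewed; covers 1985-2011 and is no longer updated.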

Which results are given for COP(=O)(OC)OC=C(Cl)Cl?
carcinogen call (Species: MOUSE, Strain/Sex: B6C3F1/FEMALE, Route: GAVAGE, Dose: 0, 20, 40 MG/KG IN CORN OIL 5 D/WK FOR 103 WK (STUDY DURATION: 104 WK), Dose: 0, 20, 40 MG/KG IN CORN OIL 5 D/WK FOR 103 WK (STUDY DURATION: 104 WK), Tumor Site: Type of Lesion: FORESTOMACH: CARCINOMA, SQUAMOUS CELL PAPILLOMA): active; positive; carcinogen call (Species: MOUSE, Strain/Sex: B6C3F1/FEMALE, Route: GAVAGE, Dose: 0, 20, 40 MG/KG IN CORN OIL 5 D/WK FOR 103 WK (STUDY DURATION: 105 WK), Dose: 0, 20, 40 MG/KG IN CORN OIL 5 D/WK FOR 103 WK (STUDY DURATION: 105 WK), Tumor Site: Type of Lesion: FORESTOMACH: SQUAMOUS PAPILLOMA, SQUAMOUS CELL PAPILLOMA OR CARCINOMA): active; positive; carcinogen call (Species: MOUSE, Strain/Sex: B6C3F1/FEMALE, Route: ORAL, Dose: 0, 317, 635 PPM IN DIET, TWA, Dose: 0, 317, 635 PPM IN DIET, TWA): inactive; negative; carcinogen call (Species: MOUSE, Strain/Sex: B6C3F1/MALE, Route: GAVAGE, Dose: 0, 10, 20 MG/KG IN CORN OIL 5 D/WK FOR 103 WK (STUDY DURATION: 104 WK), Dose: 0, 10, 20 MG/KG IN CORN OIL 5 D/WK FOR 103 WK (STUDY DURATION: 104 WK), Tumor Site: Type of Lesion: FORESTOMACH: SQUAMOUS CELL PAPILLOMA): active; positive; carcinogen call (Species: MOUSE, Strain/Sex: B6C3F1/MALE, Route: GAVAGE, Dose: 0, 10, 20 MG/KG IN CORN OIL 5 D/WK FOR 103 WK (STUDY DURATION: 105 WK), Dose: 0, 10, 20 MG/KG IN CORN OIL 5 D/WK FOR 103 WK (STUDY DURATION: 105 WK), Tumor Site: Type of Lesion: FORESTOMACH: SQUAMOUS PAPILLOMA): active; positive; carcinogen call (Species: MOUSE, Strain/Sex: B6C3F1/MALE, Route: ORAL, Dose: 0, 317, 635 PPM IN DIET, TWA, Dose: 0, 317, 635 PPM IN DIET, TWA): inactive; negative; carcinogen call (Species: RAT, Strain/Sex: BDIX/BLN/FEMALE, Route: INTRAGASTRIC, Dose: 0, 0.1 MG IN 0.2 ML WATER 2/WK FOR 60 WK (STUDY DURATION: 111 WK)): inactive; negative; carcinogen call (Species: RAT, Strain/Sex: BDIX/BLN/FEMALE, Route: INTRAGASTRIC, Dose: 0, 0.1 MG IN 0.2 ML WATER 3/WK FOR 60 WK (STUDY DURATION: 111 WK)): inactive; negative; carcinogen call (Species: RAT, Strain/Sex: BDIX/BLN/MALE, Route: INTRAGASTRIC, Dose: 0, 0.1 MG IN 0.2 ML WATER 2/WK FOR 60 WK (STUDY DURATION: 111 WK)): inactive; negative; carcinogen call (Species: RAT, Strain/Sex: BDIX/BLN/MALE, Route: INTRAGASTRIC, Dose: 0, 0.1 MG IN 0.2 ML WATER 3/WK FOR 60 WK (STUDY DURATION: 111 WK)): inactive; negative; carcinogen call (Species: RAT, Strain/Sex: F344/FEMALE, Route: GAVAGE, Dose: 0, 4, 8 MG/KG IN CORN OIL 5 D/WK FOR 103 WK (STUDY DURATION: 104 WK), Dose: 0, 4, 8 MG/KG IN CORN OIL 5 D/WK FOR 103 WK (STUDY DURATION: 104 WK), Tumor Site: Type of Lesion: PANCREAS: ACINAR CELL ADENOMA, HEMATOPOIETIC SYSTEM: MONONUCLEAR CELL LEUKEMIA, MAMMARY GLAND: FIBROADENOMA, CARCINOMA, Tumor Site: Type of Lesion: PANCREAS: ACINAR CELL ADENOMA, HEMATOPOIETIC SYSTEM: MONONUCLEAR CELL LEUKEMIA, MAMMARY GLAND: FIBROADENOMA, CARCINOMA): active; positive; carcinogen call (Species: RAT, Strain/Sex: F344/FEMALE, Route: GAVAGE, Dose: 0, 4, 8 MG/KG IN CORN OIL 5 D/WK FOR 103 WK (STUDY DURATION: 105 WK), Dose: 0, 4, 8 MG/KG IN CORN OIL 5 D/WK FOR 103 WK (STUDY DURATION: 105 WK), Tumor Site: Type of Lesion: PANCREAS: ADENOMA, MAMMARY GLAND: FIBROADENOMA): equivocal; carcinogen call (Species: RAT, Strain/Sex: F344/MALE, Route: GAVAGE, Dose: 0, 4, 8 MG/KG IN CORN OIL 5 D/WK FOR 103 WK (STUDY DURATION: 104 WK), Dose: 0, 4, 8 MG/KG IN CORN OIL 5 D/WK FOR 103 WK (STUDY DURATION: 104 WK), Tumor Site: Type of Lesion: PANCREAS: ACINAR CELL ADENOMA, HEMATOPOIETIC SYSTEM: MONONUCLEAR CELL LEUKEMIA): active; positive; carcinogen call (Species: RAT, Strain/Sex: F344/MALE, Route: GAVAGE, Dose: 0, 4, 8 MG/KG IN CORN OIL 5 D/WK FOR 103 WK (STUDY DURATION: 105 WK), Dose: 0, 4, 8 MG/KG IN CORN OIL 5 D/WK FOR 103 WK (STUDY DURATION: 105 WK), Tumor Site: Type of Lesion: PANCREAS: ADENOMA, HEMATOPOIETIC SYSTEM: MONONUCLEAR CELL LEUKEMIA): active; positive; carcinogen call (Species: RAT, Strain/Sex: OSBORNE-MENDEL/FEMALE, Route: ORAL, Dose: 0, 318, 635 PPM IN DIET, TWA, Dose: 0, 318, 635 PPM IN DIET, TWA): inactive; negative; carcinogen call (Species: RAT, Strain/Sex: OSBORNE-MENDEL/MALE, Route: ORAL, Dose: 0, 150, 326 PPM IN DIET, TWA, Dose: 0, 150, 326 PPM IN DIET, TWA): inactive; negative

How did the carcinogen call (Species: MOUSE, Strain/Sex: T.O./MALE, FEMALE, Route: DERMAL, Dose: 0, 50 UG IN TOLUENE SOLUTION 2 D/WK FOR 39 OR 50 WK (STUDY DURATION: 2 YR), Tumor Site: Type of Lesion: SKIN: PAPILLOMA OR CARCINOMA) turn out when O=C1CCc2c1cc1c3c2ccc2cccc(c23)C1 was run?
Its carcinogen call is “active; positive”.

How did the carcinogen call (Species: MOUSE, Strain/Sex: TO/MALE, FEMALE, Route: DERMAL, Dose: 0, 50 UG (10 µL OF A 0.5% W/V TOLUENE SOLUTION) 2/WK FOR 70 WK (STUDY DURATION: 70 WK)) turn out when CCCCCCOc1cc2c(c3ccc4ccccc4c13)CCC2=O was run?
The carcinogen call was “inactive; negative”.

How did the carcinogen call (Species: MOUSE, Strain/Sex: B6C3F1/FEMALE, Route: INTRAPERITONEAL, Dose: 0, 7 NMOL (TOTAL DOSE), 1/7, 2/7 AND 4/7 OF THE TOTAL DOSE ADMINISTERED WITHIN 24 HR OF BIRTH AND AT 8 AND 15 D OF AGE) turn out when O=[N+]([O-])c1ccc2ccc3c(O)ccc4ccc1c2c43 was run?
The carcinogen call was “inactive; negative”.

And the carcinogen call (Species: MOUSE, Strain/Sex: B6C3F1/MALE, Route: INTRAPERITONEAL, Dose: 0, 7 NMOL (TOTAL DOSE), 1/7, 2/7 AND 4/7 OF THE TOTAL DOSE ADMINISTERED WITHIN 24 HR OF BIRTH AND AT 8 AND 15 D OF AGE)?
Its carcinogen call is “inactive; negative”.

How did the carcinogen call (Species: RAT, Route: INTRAPERITONEAL, Tumor Site: Type of Lesion: LIVER) turn out when Cc1cc(-c2ccc(N/N=C3\C=Cc4c(S(=O)(=O)O)cc(S(=O)(=O)O)c(N)c4C3=O)c(C)c2)ccc1N/N=C1\C=Cc2c(S(=O)(=O)O)cc(S(=O)(=O)O)c(N)c2C1=O was run?
The carcinogen call was “active; positive”.
